Measurements taken from patent US20230065014A1, “Nitro-Fatty Acid-Containing Microbubbles and Uses Therefor” (University of Pittsburgh-Of the Commonwealth System of …, priority 2020, published 2023).

Legend:
[1] = molecular target: T1, PPAR-γ (peroxisome proliferator activated receptor gamma) (Homo sapiens, UniProt P37231); conditions: as described in WO 2010/014889 A2; cited from earlier work
T1 sequence (P37231 1-505): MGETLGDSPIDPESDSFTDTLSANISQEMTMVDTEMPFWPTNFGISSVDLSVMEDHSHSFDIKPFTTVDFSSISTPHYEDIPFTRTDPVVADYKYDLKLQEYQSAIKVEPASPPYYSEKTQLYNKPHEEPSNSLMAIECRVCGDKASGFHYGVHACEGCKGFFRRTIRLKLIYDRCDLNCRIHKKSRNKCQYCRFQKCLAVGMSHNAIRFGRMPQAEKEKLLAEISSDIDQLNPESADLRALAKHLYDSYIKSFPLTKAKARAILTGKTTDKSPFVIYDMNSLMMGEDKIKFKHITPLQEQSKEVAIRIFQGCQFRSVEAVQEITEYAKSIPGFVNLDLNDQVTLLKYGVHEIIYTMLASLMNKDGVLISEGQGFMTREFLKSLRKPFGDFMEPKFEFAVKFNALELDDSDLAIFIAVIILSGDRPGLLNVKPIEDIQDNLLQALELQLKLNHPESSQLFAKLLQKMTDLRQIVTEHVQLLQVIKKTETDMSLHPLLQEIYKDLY

[2] = tested on: fibrotic vascular and tissue remodeling in heart, liver and lung; conditions: Ang II, hypoxia and obesity models; cited from earlier work
[3] = tested on: Bleomycin-treated 3 mo old C57Bl6 mice; test: Reversal of established fibrosis in bleomycin-treated mice; assay type: in vivo; conditions: 7.5 mg/kg oral, 2 additional weeks
Source text: Nitroalkenes can reverse established fibrosis.

hepatocytes = conditions: in vitro; cited from earlier work
[4] = tested on: long-term NASH diet-induced liver damage; conditions: NASH diet mice; cited from earlier work
human stellate cells = conditions: in vitro; cited from earlier work

## CCCCCC=CC/C(=C\CCCCCCCC(=O)O)[N+](=O)[O-] (stereo in doubt) [10-nitro linoleic acid, (9E,12Z)-10-nitrooctadeca-9,12-dienoic acid]
[1]
  activation of the PPAR-γ receptor: potent, selective activators

## Nitro-linoleic acid
[2]
  fibrotic vascular and tissue remodeling: inhibit fibrotic vascular and tissue remodeling
[1]
  activation of the PPAR-γ receptor: nanomolar activators

## CCCCC/C=C(\C/C=C\CCCCCCCC(=O)O)[N+](=O)[O-] [12-nitro linoleic acid, 12-nitrolinoleic acid]
[1]
  activation of the PPAR-γ receptor: potent, selective activators

## NO2-oleic acid
[3]
  Ashcroft scoring: decreased collagen deposition
  Masson's trichrome and αSMA staining: resolution of pathologic remodeling
  qRT-PCR of TGFβ, Col1A1, αSMA, vimentin, MMP7 and E-cadherin expression: inhibition of these pro-fibrotic indices
  reversal of fibrosis: significant reversal of fibrosis
hepatocytes
  TG biosynthesis and accumulation: inhibited TG biosynthesis and accumulation
[4]
  RNA-sequencing analysis of liver tissue: inflammation and fibrosis as major pathways suppressed
  SREBPI proteolytic activation and subsequent lipogenesis gene expression: inhibition of SREBPI proteolytic activation and subsequent lipogenesis gene expression
  body composition and energy metabolism (CLAMS and NMR-based analysis): improved body composition and energy metabolism
  hepatic triglyceride (TG) accumulation: inhibiting hepatic triglyceride (TG) accumulation
  liver steatosis and fibrosis by photoacoustic-ultrasound imaging: robust inhibition of liver steatosis and fibrosis
[2]
  fibrotic vascular and tissue remodeling: inhibit fibrotic vascular and tissue remodeling
Human stellate cells
  fibrogenesis: inhibited fibrogenesis
[1]
  activation of the PPAR-γ receptor: nanomolar activators
